Test results as given in PMC10914731, “Homo-BacPROTAC-induced degradation of ClpC1 as a strategy against drug-resistant mycobacteria” (Nature Communications, 2024).
Converted amounts (≈) assume the structure as drawn. “And” between values parts separate entries of the source, which are not always exact repeats. Equal entries are not always repeated. Where two headings read alike, the source gives them in different places.

Legend:
[1] = tested on: Mtb # 11291; assay: microbe, parasite or virus in culture; type: cell-based; conditions: for MIC: read-out: MIC Mtb # 11291
[2] = tested on: non-replicating cells of Mtb H37Rv; type: cell-based, Mycobacterium tuberculosis
[3] = tested on: Klebsiella pneumoniae; assay: MIC ESKAPES panel, Klebsiella pneumoniae; type: cell-based
Protocol: Minimum inhibitory concentration (MIC) against ESKAPES panel of Gram positive and Gram negative pathogens (Enterococcus faecium, Staphylococcus aureus, Klebsiella pneumoniae, Acinetobacter baumannii, Pseudomonas aeruginosa, Enterobacter cloacae and Salmonella typhimurium [ESKAPES panel]) were determined at the FNDR by the standard broth dilution method [CLSI, M100]. […] Mueller Hinton broth (MHB) medium was used to grow ESKAPES panel strains. The individual cultures were added as 200 μL (inoculum of 3–7 × 10^5 cfu/ml) to the respective assay plates in each well to all columns, except the media control (200 μL of medium). […] The assay plates were incubated at 37 °C, and the results were noted on the 2nd day as turbidometric readout. The clear wells indicated inhibition of growth, while the turbid wells indicated uninhibited growth.

[4] = tested on: Msm 607; assay: microbe, parasite or virus in culture; type: cell-based
[5] = tested on: M. tuberculosis H37Rv (ATCC 27294); assay: microbe, parasite or virus in culture; type: cell-based
[6] = in vivo; type: in vivo, BALB/cAnNCrl mice; conditions: mouse, in vivo, iv
Protocol: The in-life experimental procedures were conducted in strict compliance with German and European animal welfare legislation in an AAALAC-accredited facility. Male BALB/cAnNCrl mice (Charles River Laboratories Research Models and Services, 97633 Sulzfeld, Germany) were used. Animals were 9 weeks old at dosing with a body weight of 21.6–24.3 g. Animals were delivered free of pathogens according to FELASA recommendations with a health certificate provided by the breeder. Upon receipt, the state of health and sex was checked. Animals acclimatized for at least 5 days before the commencement of the in-life phase. During acclimation, animals were group-housed in individually ventilated cages, on birch wood granulate bedding with species-specific enrichment (nesting material, mouse igloo, gnawing wood). During experimental conduct, animals were housed in conventional cages with elevated grid floors. Grid floor was used to avoid contamination with test item material excreted via urine and feces and subsequent reuptake during fur grooming. No bedding and enrichment were provided except a cage divider, which can be used as a shelter. Animals always had unlimited access to food and water and received a pelleted, total pathogen-free maintenance diet and tap drinking water, sterilized by filter.
In case of incomplete dissolution, the formulation was filtered at 40 °C (non-pyrogenic sterile-R filter, 0.2 µm). All formulations were stirred warm until administration. Actual test item content was determined bioanalytically.
Male BALB/cAnNCrl mice (n = 3 per test item and administration route) received a bolus dose of the formulated test item(s) (1 mg/kg iv, 30 mg/kg po) at t = 0 h, and whole blood samples were collected subsequently (35 µl at 0.1 (iv) / 0.25 (po), 0.5, 1, 2, 4, 6 h; 600 µl at sacrifice after 24 h). Animals were euthanized by exsanguination in deep isoflurane anesthesia. Whole blood samples were immediately stored on ice at about 4 °C. Plasma was separated by centrifugation at approximately 10,000 × g for 5 m at +4 °C. Centrifugation of each blood sample was started within 10 m after collection. A single aliquot of at least 15 µL of plasma was prepared and immediately stored at −20 ± 5 °C.
Sample proteins were precipitated with ACN (1 + 12, v/v) containing internal standard, and supernatants analyzed by quantitative UPLC-MS/MS: Phenomenex Luna Omega C18, 2.1 × 50 mm, 1.6 µm, 40 °C, gradient between 10% - 90% ACN with 0.1% formic acid. LogD determination: Lipophilicity of the test items, expressed as chromLogD7.5, was assessed by measuring their chromatographic retention times on C18-material. The chromatographic retention versus logD7.5 values of a series of thirteen n-alkan-2-ones (2-butanone – 2-hexadecanone) served as lipophilicity calibration.

[7] = single well replicates, listed as 12 (UdSBI-4377)

With COC(c1ccccc1)C1NC(=O)C(C)NC(=O)C(CC(C)CO)N(C)C(=O)C(Cc2cn(C)c3ccccc23)NC(=O)C(Cc2cn(CCCCCn3cc(CC4NC(=O)C(CC(C)C)N(C)C(=O)C(C(C)C)NC(=O)C(C(OC)c5ccccc5)NC(=O)C(C)NC(=O)C(CC(C)CO)N(C)C(=O)C(Cc5cn(C)c6ccccc56)NC4=O)nn3)nn2)NC(=O)C(CC(C)C)N(C)C(=O)C(C(C)C)NC1=O (stereo not drawn) [Compound 12] the MIC ([1]; Mycobacterium tuberculosis, mean, n = 2 well replicates) was < 0.1 µM and < 0.2 µg/mL, the MIC ([1]; Mycobacterium tuberculosis, single well replicates) was < 0.1 µM and < 0.19 µg/mL and the “MIC Mtb # 11291” value [1, 7] was under 0.19 µg/mL. The MIC [1, 7] was under 0.1 µM, the “inhibitory activity on non-growing Mtb H37Rv” value [2] was “lost their inhibitory activity” and the MIC ([3]; Gram-Negative Bacteria, replicates 1-3, listed as 12 (UdSBI-4377)) was over 50 µM. For the same compound, the MIC ([3]; Klebsiella pneumoniae, Gram negative, n = 3 well replicates) was over 50 µM, the MIC ([3]; Klebsiella pneumoniae, Gram-Negative Bacteria, replicates 1-3) was over 99 µg/mL and the MIC ([4]; Mycolicibacterium smegmatis, 607, read-out: MIC Msm 607) was 0.9 ± 0.3 µM (≈ 1.78 µg/mL). For the same compound, the MIC ([4]; Mycolicibacterium smegmatis, 607, read-out: MIC Msm #607, individual example (Supplementary Table 11)) was 0.8 µM and 1.5 µg/mL, the MIC ([4]; Mycolicibacterium smegmatis, 607, read-out: Msm 607 MIC, single determinations) was 1.56 µM (≈ 3.09 µg/mL) and the MIC ([4]; Mycolicibacterium smegmatis, ATCC607, Set-1, read-out: MIC (Msm ATCC607) Set-1) was 0.78 µM and 1.54 µg/mL. For the same compound, the MIC ([4]; Mycolicibacterium smegmatis, ATCC607, Set-2, read-out: MIC (Msm ATCC607) Set-2) was 1.54 µM and 3.06 µg/mL, the MIC ([4]; Mycolicibacterium smegmatis, ATCC607, Set-3, done at a different day than Set 1 and Set 2, read-out: MIC (Msm ATCC607) Set-3) was 0.78 µM and 1.54 µg/mL and the MIC ([4]; Mycolicibacterium smegmatis, ATCC607, mean of 3 experiments ± SD, read-out: MIC including standard deviations (Msm ATCC607)) was 1.03 µM and 2.04 µg/mL. The “Msm 607 MIC” value ([4]; single determinations, listed as 12 (UdSBI-4377)) was 0.780 µM, the MIC ([5]; M. tuberculosis H37Rv 27294, single well replicates, read-out: MIC) was 0.098 µM (≈ 0.194 µg/mL) and the MIC ([5]; Mycobacterium tuberculosis, M. tuberculosis H37Rv 27294, single well replicates, read-out: MIC) was 0.098 µM (≈ 0.194 µg/mL). The MIC ([5]; Mycobacterium tuberculosis, M. tuberculosis H37Rv strain, read-out: MIC Mtb H37Rv Mean ± SD) was 0.1 µM (≈ 0.198 µg/mL), the MIC ([5]; Mycobacterium tuberculosis, Mtb H37Rv (Supplementary Table 2), read-out: MIC Mtb) was 0.1 µM (≈ 0.198 µg/mL) and the MIC ([5]; Mycobacterium tuberculosis, Mtb H37Rv, mean ± SD, n = 3 well replicates, read-out: MIC) was 0.1 µM (≈ 0.198 µg/mL). The MIC ([5]; Mycobacterium tuberculosis, Set 1, read-out: MIC (Mtb H37Rv) Set 1) was 0.05 µM and 0.095 µg/mL, the MIC ([5]; Mycobacterium tuberculosis, Set 2, read-out: MIC (Mtb H37Rv) Set 2) was 0.05 µM and 0.095 µg/mL and the MIC ([5]; Mycobacterium tuberculosis, Set 3, done at a different day than Set 1 and Set 2, read-out: MIC (Mtb H37Rv) Set 3) was 0.05 µM and 0.095 µg/mL. For the same compound, the MIC ([5]; Mycobacterium tuberculosis, individual example (Supplementary Table 11), read-out: MIC Mtb H37Rv) was 0.05 µM and 0.1 µg/mL, the MIC ([5]; Mycobacterium tuberculosis, individual measurements (source data), read-out: Mtb MIC) was 0.097 µM (≈ 0.192 µg/mL) and the MIC ([5]; Mycobacterium tuberculosis, mean of 3 experiments +/- SD, unit taken from the sets above in the same table, read-out: MIC data (Mtb H37Rv) (+/- SD)) was 0.05 µM and 0.1 µg/mL. For the same compound, the MIC ([5]; Mycobacterium tuberculosis, single determinations, read-out: Mtb MIC) was 0.097 µM (≈ 0.192 µg/mL), the MIC ([5]; Mycobacterium tuberculosis, value of the earlier manuscript version quoted in the peer review file, read-out: inhibition of the Mtb growth (MIC)) was 0.097 µM (≈ 0.192 µg/mL) and the MIC ([5]; individual measurements (source data), read-out: Mtb MIC) was 0.097 µM (≈ 0.192 µg/mL). The Cl ([6]; male, BALB/cAnNCrl, 1 mg/kg) was 4.14 mL/min/kg, the T1/2 ([6]; male, BALB/cAnNCrl, 1 mg/kg) was 1.37 h and the VSS ([6]; male, BALB/cAnNCrl, 1 mg/kg) was 0.42 L/kg. For the same compound, the AUC [6] was 3870 h nM/(nmol kg-1), the Cmax [6] was 3270 nM/(nmol kg-1) and the “Plasma concentration 24 h” value [6] was “BLOQ”.
